Measured values taken from patent US20230365542A1, “Selective Agonists of 5-HT2A Receptor and Methods of Use” (Yale University, priority 2020, published 2023).
Read-outs that look alike come from different tables or passages of the source.

Key:
5-HT2CR = biological target: T1, 5-HT2CR (Homo sapiens, UniProt P28335); test: 5-HT2CR binding affinity (Ki), Table 8; details: read-out: 5-HT2CR Ki
T1 sequence (P28335 33-458): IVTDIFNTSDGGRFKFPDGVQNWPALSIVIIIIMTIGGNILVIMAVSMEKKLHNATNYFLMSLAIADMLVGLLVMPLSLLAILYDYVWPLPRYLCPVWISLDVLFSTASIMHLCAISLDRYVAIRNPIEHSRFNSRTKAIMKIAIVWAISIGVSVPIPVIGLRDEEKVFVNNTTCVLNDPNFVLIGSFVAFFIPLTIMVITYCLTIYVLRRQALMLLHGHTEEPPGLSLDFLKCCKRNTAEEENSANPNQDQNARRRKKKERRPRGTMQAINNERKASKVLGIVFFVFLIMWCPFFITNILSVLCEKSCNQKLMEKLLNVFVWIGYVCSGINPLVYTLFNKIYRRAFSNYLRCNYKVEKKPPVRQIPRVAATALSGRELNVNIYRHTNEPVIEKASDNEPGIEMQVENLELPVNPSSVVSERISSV

5-HT2AR [1] = biological target: T2, 5-HT2AR (Homo sapiens, UniProt P28223); test: 5-HT2AR binding affinity (Ki), Table 8
T2 construct: expressed in transfected cells; host or cells: Flp-In 293 T-Rex (tetracycline inducible)

5-HT2AR [2] = biological target: T2, 5-HT2AR; test: Calcium flux assay (FLIPR, Fluo-4), 5-HT2AR stable cell line; type: cell-based; details: for 5-HT2AR Rmax ± S.E.M: value in parentheses
Protocol: Stable cell lines for 5-HT2AR, 5-HT2BR and 5-HT2CR generated using the Flp-In 293 T-Rex Tetracycline inducible system (Invitrogen). Tetracycline-induced cells were seeded in 384-well poly-L-lysine plates at a density of 10,000 cells/well in DMEM containing 1% dialyzed FBS at least 16-24 hr before the calcium flux assay. On the day of the assay, the cells were incubated (20 ul/well) for 1 hr at 37° C. with Fluo-4 Direct dye (Invitrogen) reconstituted in FLIPR buffer (1×HBSS, 2.5 mM probenecid, and 20 mM HEPES, pH 7.4). After dye loading, cells were placed in a FLIPR^TETRA fluorescence imaging plate reader (Molecular Dynamics). Drug dilutions were prepared at 3× final concentration in drug buffer (1×HBSS, 20 mM HEPES, 0.1% BSA, 0.01% ascorbic acid, pH 7.4) and aliquoted into 384-well plates and placed in the FLIPR^TETRA for drug stimulation. The fluidics module and plate reader of the FLIPR^TETRA were programmed to read baseline fluorescence for 10s (1 read/s), then 10 ul of drug/well was added and read for 5 min (1 read/s). Fluorescence in each well was normalized to the average of the first 10 reads (i.e., baseline fluorescence). Then, the maximum-fold increase, which occurred within the first 60 s after drug addition, was determined and fold over baseline was plotted as a function of drug concentration. Data were normalized to % 5-HT stimulation and analyzed using “log(agonist) vs. response” in GraphPad Prism 9.0.

5-HT2BR [3] = biological target: T3, 5-HT2BR (Homo sapiens, UniProt P41595); test: 5-HT2BR binding affinity (Ki), Table 8
T3 construct: expressed in transfected cells; host or cells: Flp-In 293 T-Rex (tetracycline inducible)

5-HT2BR [4] = biological target: T3, 5-HT2BR; test: Calcium flux assay (FLIPR, Fluo-4), 5-HT2BR stable cell line; type: cell-based; details: for 5-HT2BR Rmax ± S.E.M: value in parentheses
Protocol: Stable cell lines for 5-HT2AR, 5-HT2BR and 5-HT2CR generated using the Flp-In 293 T-Rex Tetracycline inducible system (Invitrogen). Tetracycline-induced cells were seeded in 384-well poly-L-lysine plates at a density of 10,000 cells/well in DMEM containing 1% dialyzed FBS at least 16-24 hr before the calcium flux assay. On the day of the assay, the cells were incubated (20 ul/well) for 1 hr at 37° C. with Fluo-4 Direct dye (Invitrogen) reconstituted in FLIPR buffer (1×HBSS, 2.5 mM probenecid, and 20 mM HEPES, pH 7.4). After dye loading, cells were placed in a FLIPR^TETRA fluorescence imaging plate reader ([…]). Drug dilutions were prepared at 3× final concentration in drug buffer (1×HBSS, 20 mM HEPES, 0.1% BSA, 0.01% ascorbic acid, pH 7.4) and aliquoted into 384-well plates and placed in the FLIPR^TETRA for drug stimulation. The fluidics module and plate reader of the FLIPR^TETRA were programmed to read baseline fluorescence for 10s (1 read/s), then 10 ul of drug/well was added and read for 5 min (1 read/s). Fluorescence in each well was normalized to the average of the first 10 reads (i.e., baseline fluorescence). Then, the maximum-fold increase, which occurred within the first 60 s after drug addition, was determined and fold over baseline was plotted as a function of drug concentration. Data were normalized to % 5-HT stimulation and analyzed using “log(agonist) vs. response” in GraphPad Prism 9.0.

[5] = bracketed value below Ki, read-out: 5-HT2BR pKi ± S.E.M (converted)
[6] = bracketed value below EC50, read-out: 5-HT2BR pEC50 ± S.E.M (converted)

T3 sequence (P41595 whole entry): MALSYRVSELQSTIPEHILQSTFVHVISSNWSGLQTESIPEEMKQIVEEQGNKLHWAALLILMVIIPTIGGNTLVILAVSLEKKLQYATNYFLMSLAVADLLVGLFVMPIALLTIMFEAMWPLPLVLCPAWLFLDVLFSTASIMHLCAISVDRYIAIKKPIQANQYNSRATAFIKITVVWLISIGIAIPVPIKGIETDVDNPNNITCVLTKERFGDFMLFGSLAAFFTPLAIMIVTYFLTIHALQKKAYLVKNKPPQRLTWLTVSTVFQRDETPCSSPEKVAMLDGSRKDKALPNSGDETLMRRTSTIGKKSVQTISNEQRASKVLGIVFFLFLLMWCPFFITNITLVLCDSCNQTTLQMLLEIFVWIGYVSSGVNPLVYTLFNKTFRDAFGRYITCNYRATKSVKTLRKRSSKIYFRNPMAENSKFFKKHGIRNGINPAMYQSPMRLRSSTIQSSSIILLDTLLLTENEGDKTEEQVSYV
T2 sequence (P28223 whole entry): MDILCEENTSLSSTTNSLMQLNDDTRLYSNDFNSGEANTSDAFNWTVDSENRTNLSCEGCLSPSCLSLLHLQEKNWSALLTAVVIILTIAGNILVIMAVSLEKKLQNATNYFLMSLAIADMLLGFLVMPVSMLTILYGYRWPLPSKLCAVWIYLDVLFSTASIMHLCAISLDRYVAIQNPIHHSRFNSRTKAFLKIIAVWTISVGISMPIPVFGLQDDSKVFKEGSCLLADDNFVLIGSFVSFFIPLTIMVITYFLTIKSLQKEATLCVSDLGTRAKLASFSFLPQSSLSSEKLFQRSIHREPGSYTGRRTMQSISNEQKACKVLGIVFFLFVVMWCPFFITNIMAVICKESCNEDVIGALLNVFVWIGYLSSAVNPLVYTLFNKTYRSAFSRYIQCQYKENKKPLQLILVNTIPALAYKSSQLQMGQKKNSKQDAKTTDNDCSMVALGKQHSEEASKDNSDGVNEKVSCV

Row | SMILES | Ki (5-HT2CR) [µM] | Ki (5-HT2AR [1]; read-out: 5-HT2AR Ki) [µM] | 5-HT2AR EC50 (5-HT2AR [2]) | Ki (5-HT2BR [3]; read-out: 5-HT2BR Ki) [µM] | 5-HT2BR EC50 (5-HT2BR [4]) | EC50 (5-HT2BR [4]; read-out: 5-HT2BR EC50) [µM] | 5-HT2BR Rmax ± S.E.M (5-HT2BR [4]) | Ki (5-HT2AR [1]; bracketed value below Ki, read-out: 5-HT2AR pKi ± S.E.M (converted)) [µM] | EC50 (5-HT2AR [2]; read-out: 5-HT2AR EC50) [µM] | 5-HT2AR Rmax ± S.E.M (5-HT2AR [2]) | Ki (5-HT2BR [3]; [5]) [µM] | EC50 (5-HT2AR [2]; bracketed value below EC50, read-out: 5-HT2AR pEC50 ± S.E.M (converted)) [µM] | EC50 (5-HT2BR [4]; [6]) [µM]
1 | C[C@@H]1C=C(c2c[nH]c3ncccc23)CN(CCCN(C)C)C1 [compound 31, (R)-N,N-dimethyl-3-(3-methyl-5-(1H-pyrrolo[2,3-b]pyridin-3-yl)-3,6-dihydropyrridin-1(2H)-yl)propan-1-amine] | > 10 | > 10 | antagonist | > 10 | antagonist |  |  |  |  |  |  |  | 
2 | Cc1cncc(C2=CC(C)CN(CC3(O)COC3)C2)c1 (racemic) [Compound 4, 3-((5,5′-Dimethyl-5,6-dihydro-[3,3′-bipyridin]-1(2H)-yl)methyl)oxetan-3-ol] |  |  |  | 0.67 | antagonist |  |  |  |  |  |  |  | 
3 | C[C@H]1C=C(c2c[nH]c3ncccc23)CN(Cc2cnco2)C1 [compound 48, (S)-5-((3-methyl-5-(1H-pyrrolo[2,3-b]pyridin-3-yl)-3,6-dihydropyridin-1(2H)-yl)methyl)oxazole] | > 10 | > 10 | antagonist | 8.01 |  | 8.86 | (48.8% |  |  |  |  |  | 
4 | C[C@H]1C=C(c2cncc(Cl)c2)CN(C)C1 (stereo in doubt) [Compound 18, 5′-chloro-1,5-dimethyl-1,2,5,6-tetrahydro-3,3′-bipyridine] | > 10 | 3.21 |  |  | antagonist |  |  | 3.16 | 0.87 | (13.7% | 0.138 |  | 
5 | C[C@H]1C=C(c2c[nH]c3ncccc23)CNC1 [compound 39, (S)-3-(5-methyl-1,2,5,6-tetrahydropyridin-3-yl)-1H-pyrrolo[2,3-b]pyridine] |  |  |  | 1.81 |  | 1.23 | (26.8% |  | 0.52 | (14.0% |  | 0.513 | 
6 | C[C@H]1C=C(c2cncc(Cl)c2)CN(CC2(O)COC2)C1 [Compound 8, 3-((5′-Chloro-5-methyl-5,6-dihydro-[3,3′-bipyridin]-1(2H)-yl)methyl)oxetan-3-ol] | > 10 | > 10 |  |  |  |  | (20.4% |  |  |  | 0.0794 |  | 0.126
7 | Cc1cncc(C2=C[C@@H](C)CN(CC3(O)COC3)C2)c1 [Compound 5, 3-((5,5′-Dimethyl-5,6-dihydro-[3,3′-bipyridin]-1(2H)-yl)methyl)oxetan-3-ol] | > 10 | > 10 |  |  | antagonist |  |  |  |  |  | 3.24 |  | 
8 | CC1C=C(c2cnn(C)c2)CN(CC2(C)COC2)C1 (racemic) [Compound 1, 3-Methyl-5-(1-methyl-1H-pyrazol-4-yl)-1-((3-methyloxetan-3-yl)methyl)-1,2,3,6-tetrahydropyridine] |  |  |  | 3.88 |  | 1.94 | 48.9% |  |  |  |  |  | 
9 | CCc1cncn1CCN1CC(c2cccn2C)=CC(C)C1 (racemic) [Compound 2, 1-(2-(5-Ethyl-1H-imidazol-1-yl)ethyl)-3-methyl-5-(1-methyl-1H-pyrrol-2-yl)-1,2,3,6-tetrahydropyridine] |  | 6.23 | antagonist | 2.67 |  | 2.98 | 56.3% |  |  |  |  |  | 
10 | Cc1cncc(C2=C[C@H](C)CN(CC3(O)COC3)C2)c1 (stereo in doubt) [Compound 6, 3-((5,5′-Dimethyl-5,6-dihydro-[3,3′-bipyridin]-1(2H)-yl)methyl)oxetan-3-ol] | > 10 | > 10 |  |  |  | 0.12 | (16.0% |  |  |  | 0.245 |  | 0.115
11 | CCCCCN1CC(c2cnn(C)c2)=CC(C)C1 (racemic) [Compound 3, 3-Methyl-5-(1-methyl-1H-pyrazol-4-yl)-1-pentyl-1,2,3,6-tetrahydropyridine] |  |  |  | 1.48 | antagonist |  |  |  | > 10 |  |  |  | 
